# Laboratory results as given in patent publication US20140106967A1, “AUXIN PLANT GROWTH REGULATORS” (The Governors of The University of Alberta, priority 2011, published 2014).
# Test system: pea plants cv. 'Carneval'
# Test: Growth chamber experiment 2, pea 'Carneval' sprayed with 4-ME-IAA: peduncle/pedicel growth and seed yield, with or without heat stress (Tables P3-P12)
# Format: in vivo, Pisum sativum L.
# Experimental: For growth chamber experiment, seeds of ‘Carneval’ were planted at an approximate depth of 2.5 cm in 3-L plastic pots (4 seeds per pot and thinned to 2 plants per pot after approximately 2 weeks) in 1:1 Sunshine #4 potting mix (Sun Gro Horticulture, Vancouver, Canada) and sand. The experiment was arranged in a completely randomized design and grown at the University of Alberta in a growth chamber set at 19° C./17° C. (day/night) with a 16/8-h photoperiod under cool-white fluorescent lights (54W/835/HO high fluorescent bulbs, Phillips, Holland; 350 μE m^2 s^−2). For the heat stress treatment, plants were placed in a separate growth chamber with a 16/8-h photoperiod under cool-white fluorescent lights (F54/15/835/HO high fluorescent bulbs, Phillips, Holland) for 4 days where the temperature was cycled over a 24 hr period as follows: 33° C. air temperature for 6 hours per day (between 11:00 and 17:00 hrs) for 4 days during the light cycle; the remainder of the light cycle was maintained at a 22° C. air temperature; the dark cycle was maintained at 19° C. After the 4 day heat treatment, the plants were returned to the same growth chamber they were originally grown in, where they were taken to maturity.
# For experiment 2, aqueous 4-methyl-indole-3-acetic acid (4-ME-IAA) solutions at 1×10^−7, 1×10^−6, 1×10^−5, or 1×10^−4 M in 0.1% (v/v) Tween 80 or aqueous 0.1% (v/v) Tween 80 (control) were applied as a spray to the entire plant to cover when the first flowering node of the main stem was near or at anthesis. In addition to the application at the timing cited above, one application of 4-ME-IAA at 1×10^−6 M or 1×10^−5 M was made when the floral buds were tightly clustered inside the stipule leaves at the stem apex (floral buds not visible outside of stipule leaves; designated the ‘Early’ treatment). In the heat stress treatment, the hormone or control treatment application was completed 16 hrs prior to the initiation of the first heat-stress cycle. The length and diameter (measured mid-length) of the lower and upper peduncles and pedicels of the inflorescence with two pods (or the lower peduncle and pedicel if a single pod node) at the first, second, third and fourth flowering nodes of the main stem of pea plants were determined for hormone-treated and control plants. Standard error of the mean (SE) was calculated for the means of all data for a measure of statistical significance in comparing treatment means.
# [1] = 1×10^−4 M, applied near or at anthesis, no heat stress
# [2] = 1×10^−4 M, first flowering node, heat stress (33° C. 6 h/day, 4 days)
# [3] = 1×10^−4 M, first flowering node, no heat stress
# [4] = 1×10^−4 M, fourth flowering node, heat stress (33° C. 6 h/day, 4 days)
# [5] = 1×10^−4 M, fourth flowering node, no heat stress
# [6] = 1×10^−4 M, heat stress (33° C. 6 h/day, 4 days)
# [7] = 1×10^−4 M, second flowering node, heat stress (33° C. 6 h/day, 4 days)
# [8] = 1×10^−4 M, second flowering node, no heat stress
# [9] = 1×10^−4 M, third flowering node, heat stress (33° C. 6 h/day, 4 days)
# [10] = 1×10^−4 M, third flowering node, no heat stress
# [11] = 1×10^−5 M, applied near or at anthesis, no heat stress
# [12] = 1×10^−5 M, first flowering node, heat stress (33° C. 6 h/day, 4 days)
# [13] = 1×10^−5 M, first flowering node, no heat stress
# [14] = 1×10^−5 M, fourth flowering node, heat stress (33° C. 6 h/day, 4 days)
# [15] = 1×10^−5 M, fourth flowering node, no heat stress
# [16] = 1×10^−5 M, heat stress (33° C. 6 h/day, 4 days)
# [17] = 1×10^−5 M, second flowering node, heat stress (33° C. 6 h/day, 4 days)
# [18] = 1×10^−5 M, second flowering node, no heat stress
# [19] = 1×10^−5 M, third flowering node, heat stress (33° C. 6 h/day, 4 days)
# [20] = 1×10^−5 M, third flowering node, no heat stress
# [21] = 1×10^−6 M, applied near or at anthesis, no heat stress
# [22] = 1×10^−6 M, first flowering node, heat stress (33° C. 6 h/day, 4 days)
smiles,measurement,setting,value
"Cc1cccc2[nH]cc(CC(=O)O)c12 [4-ME-IAA, 4-methyl-indole-3-acetic acid]",Ratio of seed number on main stem to lateral stems,[1],4.6 ± 1.1
same,Seed number per plant,[1],56.7 ± 3.6
same,Seed weight per plant,[1],14.0 ± 1.0 g
same,Weight per seed,[1],0.247 ± 0.006 g
same,increase in seed yield (seed weight per plant) vs control,[1],61%
same,Lower Pedicel Length,[2],7.63 ± 0.46 mm
same,Lower Pedicel diameter,[2],1.58 ± 0.09 mm
same,Lower Peduncle Length,[2],52.22 ± 4.26 mm
same,Lower Peduncle diameter,[2],1.71 ± 0.06 mm
same,Upper Pedicel Length,[2],7.00 ± 0.45 mm
same,Upper Pedicel diameter,[2],1.6 ± 0.07 mm
same,Upper Peduncle Length,[2],17.00 ± 1.37 mm
same,Upper Peduncle diameter,[2],1.44 ± 0.07 mm
same,Lower Pedicel Length,[3],8.50 ± 0.37 mm
same,Lower Pedicel diameter,[3],1.73 ± 0.05 mm
same,Lower Peduncle Length,[3],69.70 ± 4.21 mm
same,Lower Peduncle diameter,[3],1.73 ± 0.07 mm
same,Upper Pedicel Length,[3],8.10 ± 0.43 mm
same,Upper Pedicel diameter,[3],1.54 ± 0.05 mm
same,Upper Peduncle Length,[3],15.20 ± 1.36 mm
same,Upper Peduncle diameter,[3],1.44 ± 0.03 mm
same,Lower Pedicel Length,[4],7.00 ± 0.41 mm
same,Lower Pedicel diameter,[4],1.45 ± 0.11 mm
same,Lower Peduncle Length,[4],25.50 ± 3.97 mm
same,Lower Peduncle diameter,[4],1.38 ± 0.10 mm
same,Upper Pedicel Length,[4],7.00 ± 0.0 mm
same,Upper Pedicel diameter,[4],1.33 ± 0.15 mm
same,Upper Peduncle Length,[4],14.50 ± 0.50 mm
same,Upper Peduncle diameter,[4],1.17 ± 0.02 mm
same,Lower Pedicel Length,[5],8.44 ± 0.23 mm
same,Lower Pedicel diameter,[5],1.42 ± 0.05 mm
same,Lower Peduncle Length,[5],41.00 ± 3.24 mm
same,Lower Peduncle diameter,[5],1.36 ± 0.06 mm
same,Upper Pedicel Length,[5],8.22 ± 0.14 mm
same,Upper Pedicel diameter,[5],1.36 ± 0.06 mm
same,Upper Peduncle Length,[5],16.67 ± 0.39 mm
same,Upper Peduncle diameter,[5],1.17 ± 0.04 mm
same,Ratio of seed number on main stem to lateral stems,[6],2.1 ± 0.4
same,Seed number plant,[6],55.6 ± 6.2
same,Seed weight per per plant,[6],14.5 ± 1.7 g
same,Weight per seed,[6],0.261 ± 0.009 g
same,Lower Pedicel Length,[7],7.56 ± 0.38 mm
same,Lower Pedicel diameter,[7],1.56 ± 0.06 mm
same,Lower Peduncle Length,[7],40.33 ± 4.51 mm
same,Lower Peduncle diameter,[7],1.63 ± 0.04 mm
same,Upper Pedicel Length,[7],7.25 ± 0.25 mm
same,Upper Pedicel diameter,[7],1.54 ± 0.05 mm
same,Upper Peduncle Length,[7],16.88 ± 1.52 mm
same,Upper Peduncle diameter,[7],1.29 ± 0.04 mm
same,Lower Pedicel Length,[8],8.30 ± 0.47 mm
same,Lower Pedicel diameter,[8],1.65 ± 0.05 mm
same,Lower Peduncle Length,[8],55.60 ± 4.08 mm
same,Lower Peduncle diameter,[8],1.67 ± 0.06 mm
same,Upper Pedicel Length,[8],8.3 ± 0.47 mm
same,Upper Pedicel diameter,[8],1.55 ± 0.05 mm
same,Upper Peduncle Length,[8],18.40 ± 0.72 mm
same,Upper Peduncle diameter,[8],1.38 ± 0.05 mm
same,Lower Pedicel Length,[9],7.33 ± 0.29 mm
same,Lower Pedicel diameter,[9],1.55 ± 0.08 mm
same,Lower Peduncle Length,[9],28.22 ± 3.07 mm
same,Lower Peduncle diameter,[9],1.53 ± 0.06 mm
same,Upper Pedicel Length,[9],7.50 ± 0.29 mm
same,Upper Pedicel diameter,[9],1.49 ± 0.05 mm
same,Upper Peduncle Length,[9],14.00 ± 1.00 mm
same,Upper Peduncle diameter,[9],1.29 ± 0.03 mm
same,Lower Pedicel Length,[10],8.20 ± 0.33 mm
same,Lower Pedicel diameter,[10],1.49 ± 0.06 mm
same,Lower Peduncle Length,[10],49.90 ± 4.2 mm
same,Lower Peduncle diameter,[10],1.53 ± 0.05 mm
same,Upper Pedicel Length,[10],8.10 ± 0.28 mm
same,Upper Pedicel diameter,[10],1.40 ± 0.06 mm
same,Upper Peduncle Length,[10],19.10 ± 0.75 mm
same,Upper Peduncle diameter,[10],1.21 ± 0.04 mm
same,Ratio of seed number on main stem to lateral stems,[11],3.3 ± 0.6
same,Seed number per plant,[11],60.3 ± 3.2
same,Seed weight per plant,[11],14.0 ± 0.9 g
same,Weight per seed,[11],0.230 ± 0.004 g
same,increase in seed yield (seed weight per plant) vs control,[11],61%
same,Lower Pedicel Length,[12],9.11 ± 0.26 mm
same,Lower Pedicel diameter,[12],1.59 ± 0.06 mm
same,Lower Peduncle Length,[12],61.33 ± 4.13 mm
same,Lower Peduncle diameter,[12],1.60 ± 0.08 mm
same,Upper Pedicel Length,[12],8.83 ± 0.17 mm
same,Upper Pedicel diameter,[12],1.56 ± 0.08 mm
same,Upper Peduncle Length,[12],16.00 ± 1.46 mm
same,Upper Peduncle diameter,[12],1.33 ± 0.04 mm
same,Lower Pedicel Length,[13],8.70 ± 0.45 mm
same,Lower Pedicel diameter,[13],1.58 ± 0.04 mm
same,Lower Peduncle Length,[13],63.10 ± 4.95 mm
same,Lower Peduncle diameter,[13],1.53 ± 0.05 mm
same,Upper Pedicel Length,[13],8.70 ± 0.37 mm
same,Upper Pedicel diameter,[13],1.49 ± 0.03 mm
same,Upper Peduncle Length,[13],19.90 ± 1.12 mm
same,Upper Peduncle diameter,[13],1.31 ± 0.03 mm
same,Lower Pedicel Length,[14],7.17 ± 0.48 mm
same,Lower Pedicel diameter,[14],1.41 ± 0.07 mm
same,Lower Peduncle Length,[14],29.50 ± 2.63 mm
same,Lower Peduncle diameter,[14],1.39 ± 0.02 mm
same,Lower Pedicel Length,[15],9.00 ± 0.44 mm
same,Lower Pedicel diameter,[15],1.22 ± 0.09 mm
same,Lower Peduncle Length,[15],40.22 ± 3.64 mm
same,Lower Peduncle diameter,[15],1.41 ± 0.05 mm
same,Upper Pedicel Length,[15],8.88 ± 0.44 mm
same,Upper Pedicel diameter,[15],1.11 ± 0.10 mm
same,Upper Peduncle Length,[15],18.13 ± 0.88 mm
same,Upper Peduncle diameter,[15],1.03 ± 0.08 mm
same,Ratio of seed number on main stem to lateral stems,[16],1.1 ± 0.1
same,Seed number plant,[16],50.6 ± 5.0
same,Seed weight per per plant,[16],13.7 ± 1.2 g
same,Weight per seed,[16],0.274 ± 0.005 g
same,Lower Pedicel Length,[17],8.11 ± 0.11 mm
same,Lower Pedicel diameter,[17],1.68 ± 0.07 mm
same,Lower Peduncle Length,[17],47.11 ± 5.35 mm
same,Lower Peduncle diameter,[17],1.58 ± 0.05 mm
same,Upper Pedicel Length,[17],8.00 ± 0.29 mm
same,Upper Pedicel diameter,[17],1.55 ± 0.06 mm
same,Upper Peduncle Length,[17],16.33 ± 0.82 mm
same,Upper Peduncle diameter,[17],1.32 ± 0.04 mm
same,Lower Pedicel Length,[18],8.80 ± 0.33 mm
same,Lower Pedicel diameter,[18],1.50 ± 0.04 mm
same,Lower Peduncle Length,[18],53.50 ± 5.01 mm
same,Lower Peduncle diameter,[18],1.45 ± 0.04 mm
same,Upper Pedicel Length,[18],8.60 ± 0.37 mm
same,Upper Pedicel diameter,[18],1.39 ± 0.04 mm
same,Upper Peduncle Length,[18],18.10 ± 0.74 mm
same,Upper Peduncle diameter,[18],1.16 ± 0.03 mm
same,Lower Pedicel Length,[19],7.67 ± 0.37 mm
same,Lower Pedicel diameter,[19],1.58 ± 0.06 mm
same,Lower Peduncle Length,[19],39.22 ± 3.35 mm
same,Lower Peduncle diameter,[19],1.52 ± 0.05 mm
same,Upper Pedicel Length,[19],7.00 ± 0.32 mm
same,Upper Pedicel diameter,[19],1.56 ± 0.08 mm
same,Upper Peduncle Length,[19],16.20 ± 1.74 mm
same,Upper Peduncle diameter,[19],1.38 ± 0.09 mm
same,Lower Pedicel Length,[20],8.56 ± 0.41 mm
same,Lower Pedicel diameter,[20],1.35 ± 0.04 mm
same,Lower Peduncle Length,[20],47.11 ± 4.73 mm
same,Lower Peduncle diameter,[20],1.53 ± 0.03 mm
same,Upper Pedicel Length,[20],8.67 ± 0.29 mm
same,Upper Pedicel diameter,[20],1.25 ± 0.05 mm
same,Upper Peduncle Length,[20],20.44 ± 1.00 mm
same,Upper Peduncle diameter,[20],1.13 ± 0.05 mm
same,Ratio of seed number on main stem to lateral stems,[21],2.9 ± 0.6
same,Seed number per plant,[21],63.3 ± 4.6
same,Seed weight per plant,[21],14.9 ± 0.9 g
same,Weight per seed,[21],0.238 ± 0.006 g
same,increase in seed yield (seed weight per plant) vs control,[21],71%
same,Lower Pedicel Length,[22],8.80 ± 0.29 mm
same,Lower Pedicel diameter,[22],1.47 ± 0.05 mm
same,Lower Peduncle Length,[22],60.40 ± 5.23 mm
